{"source": "patent US10588972B2", "about": "“Phthalocyanine probes and uses thereof” (LI-COR, INC., priority 2014, dated 2020)", "key": {"[1]": {"assay": "Stability of IRDye 700DX carboxylate (signal intensity) in PBS and in buffers of pH 2.1-8.2", "format": "physicochemical", "details": "37° C.", "experimental": "Evaluation of the effect of pH on the stability of the carboxylate form of the dye was performed at room temperature and at 37° C. For comparison purposes a test of the stability at 37° C. while dissolved in 1×PBS was included. Mcllaine's buffer solution with constant ionic strength was used. […] When the dye was dissolved in various buffers with increasing pH (2.1-8.2) a loss in signal intensity initially occurred between pH 4 and 5 with losses progressively increasing down to pH 2.1 at room temperature (FIG. 3A). At 37° C. this loss initially occurred at a slightly higher pH between pH 5-6 with a progression similar to the tests done at room temperature (FIG. 3B)."}, "[2]": {"system": "serum proteins including albumin (human serum albumin, bovine serum albumin, 5% FBS)", "assay": "Binding of dye to serum proteins, incubation in 1×PBS and 4-12% Bis-Tris gel", "experimental": "In SDS-PAGE and under non-reducing conditions, ovalbumin has a molecular weight of about 40 kDa, 45 kDa, 63 kDa and 72 kDa. Human serum albumin (HSA) has a molecular with ranging from about 66.6 kDa to about 66.4 kDa or lower under non-reducing conditions. HSA can migrate as an approximately 58-67 kDa band in SDS-PAGE under reducing conditions.\nHuman serum albumin, bovine serum albumin, 5% FBS and IRDye® 700DX carboxylate were incubated in 1×PBS for 2.5 h at room temperature. Methylene blue was also used as a dye known to bind to albumin and the other serum proteins. The samples were run on a 4-12% Bis-Tris gel. Ovalbumin served as the negative control. The proteins incubated with IRDye® 700DX carboxylate are on the left of the gel and methylene blue samples are on the right (FIG. 4A-B)."}, "[3]": {"assay": "Production of singlet oxygen, Singlet Oxygen Green Sensor, steady state fluorometer", "details": "for singlet oxygen sensor fluorescence with scavenger sodium azide added: 32 J/cm^2", "experimental": "Dyes and conjugated probes (IRDye 700DX carboxylate (700DX), EGF, RGD, and IgG conjugates) were evaluated for production of singlet oxygen using Singlet Oxygen Green Sensor (Life Technologies) and measured by a steady state fluorometer (ex 504 nm/em 525 nm). Controls (water or DMEM medium) and a positive control of methylene blue (MB) were included.\nMeasurements were made every second for 30 sec and averaged. Solution makeup: SOGS (1 μM), dye or probe addition (10 μM), Tris pH 7.5 ([…]) and deuterium oxide (50%). Light exposure=32 J/cm^2."}, "[4]": {"assay": "Clearance and biodistribution of IRDye 700DX carboxylate by fluorescence imaging", "format": "in vivo, nude mice", "experimental": "Experiments were performed to evaluate the clearance of IRDye® 700DX carboxylate in nude mice receiving 2 or 4 nmoles of the compound. This is the non-reactive form of the dye and the in vivo elimination kinetics can be used to determine the biodistribution of the dye and a subsequent dye-labeled conjugate. The results for both doses were very similar (only 4 nmole animal images are presented). Clearance appeared to be renal as noted in the dorsal (FIG. 8A) and ventral whole body views (FIG. 9A). The kidneys are visible throughout the dorsal series (FIG. 8A) and liver negligible in ventral series (FIG. 9A). […] A closer examination of the organs after excision is illustrated in FIG. 10B (2 nmole dose). […] All organs imaged (muscle, heart, lungs, liver, brain, spleen, intestine, and kidneys) were analyzed for signal corrected for area."}, "A431 cells [5]": {"system": "A431 cells", "assay": "VB-48 assay: vitality, viability and necrosis of treatments 1-10 (Table 3)", "format": "cell-based", "experimental": "Briefly, A431 cells were labeled with respective probes for specific treatments (listed below); cells were rinsed and evaluated for labeling. The test include the following treatments: […], treatments 3-4 of EGF-IRDye® 700DX at 0.5 μM and radiation, treatments 5-6 of IRDye® 700DX NHSe at 5 μM and radiation, treatments 7-8 of panitumumab-IRDye® 700DX at about 0.1 μM and radiation, treatment 9 of a negative control with no probe and no irradiation, and treatment 10 of RGD-IRDye® 700DX and no irradiation. The probes were incubated for about 10 minutes and with a longer period of about 20 minutes for the RGD probe. The cells were monitored with microscopy and morphology was examination 24 hours post treatment.\nLow binding was expected for the RGD probe due to the low level of integrin receptors on A431 cells. […] By 3 hours post-irradiation all treatments except RGD (Treatment 1) show significant cytotoxicity. Vitality, viability and necrosis assays such as a VB-48 assay and JC-1 assay were performed."}, "A431 cells [6]": {"system": "A431 cells", "format": "cell-based", "details": "32 J/cm^2", "experimental": "A different LED source was tested and evaluated to determine if a second source of LED would yield a similar effect as the standard LED used. A straight forward evaluation was set up with four treatments (treatments A-D). The tests were performed in triplicate in order to examine reproducibility. The test included the following four treatments: treatment A of no probe and irradiation, treatment B of IRdye® 700DX-labeled EGF and no irradiation, treatment C of IRDye® 700DX-labeled EGF and irradiation, and treatment D of IRDye® 700DX-labeled panitumumab and irradiation. The probe dose was about 0.1 μM labeled panitumumab and 0.5 μM 700DX-labeled EGF. Irradiation was for 10 minutes at an irradiation dose of 32 J/cm^2.\nSignificant and similar effects for both probes together and in triplicate thus providing clear evidence that IRDye® 700DX-labeled small protein can kill cells similarly to an IRDye 700DX-labeled antibody. Conditions for use of either probe may be unique to the individual probe. […] The fluorescent scale of the 700 nm images was the same for both treated sets of cells (FIGS. 12C-12D). Although the exact concentration of the antibody probe is not known, the signals from the different probes appear similar in level and intensity."}, "A431 cells [7]": {"system": "A431 cells", "assay": "Cytotoxicity and localization of antibody probe versus small protein ligand probe after irradiation (Example 4)", "format": "cell-based", "experimental": "Both probes can bind EGFR and had approximately 2 dye molecule per conjugate molecule. It was assumed that the affinity for the receptor will be different for the antibody (generally pM), compared to the small protein (nM). Although the probe doses were different, the incubation times were the same at only 10 min. After incubation, the probes were rinsed from the cells. FIGS. 7A and 7B illustrates A431 cells that were incubated with IRDye 700DX-panitumumab or IRDye 700DX-EGF, respectively and thereafter irradiated.\nThus, upon irradiation, the production of singlet oxygen occurred at the cell surface. Typically, the EGF ligand is internalized after binding the EGF receptor."}, "A431 cells [8]": {"system": "A431 cells", "assay": "Unlabeled versus IRDye 700DX-labeled panitumumab with and without irradiation (Example 5)", "format": "cell-based", "details": "10 minutes incubation", "experimental": "Although the assumption is that the doses used in the assay described herein are too low to be a contributing factor in the cell death seen with IRDye® 700DX-labeled panitumumab, a small study was conducted to confirm that no therapeutic effect is due to the assay system. The test included the following four treatments: treatment 1 of unlabeled panitumumab and no irradiation (FIG. 11A), treatment 2 of IRDye® 700DX-labeled panitumumab and no irradiation (FIG. 11B), treatment 3 of unlabeled panitumumab and irradiation (FIG. 11C), and treatment 4 of IRDye® 700DX-labeled panitumumab and irradiation (FIG. 11D). The irradiation dose was 24 J/cm^2 with the probe incubation of 10 minutes and a concentration of 0.1 μM."}, "[9]": {"details": "2.5 h incubation, room temperature"}, "[10]": {"details": "irradiated (I) 32 J/cm^2, RGD 0.5 μM, EGF 0.5 μM, NHSe 5 μM, Pan ~0.1 μM"}, "[11]": {"details": "irradiated (I) 10 minutes, 700DX-EGF 0.5 μM, 700DX-Pan about 0.1 μM"}, "[12]": {"details": "irradiation 24 J/cm^2, 0.1 μM, 24 hours post-treatment"}, "[13]": {"details": "no irradiation, 0.1 μM, 24 hours"}}, "note": "Values joined by “and” are separate entries in the source; they are usually repeats but may differ in a detail not shown here. Equal entries are not always repeated. Where two headings read alike, the source gives them in different places.", "data": [{"compound": "silicate(5-), bis[N— [3-[(hydroxy-.kappa.O)dimethylsilyl]propyl]-3-sulfo-N,N-bis(3-sulfopropyl)-1-propanaminiumato(4-)][6-[[[3-[(29H,31H-phthalocyanin-yl-.kappa.N29, .kappa.N30, .kappa.N31, .kappa.N32)oxy]propoxy]carbonyl]amino]hexanoato(3-)]-, sodium (1:5) [IRDye® 700DX carboxylate]", "values": [{"measurement": "loss of signal intensity (stability)", "setting": "[1]; 1×PBS, 1 μM", "result": "very little loss of signal intensity"}, {"measurement": "pH at which a loss in signal intensity initially occurred", "setting": "[1]; buffers of increasing pH", "result": "5-6 pH"}, {"measurement": "binding to the serum proteins including albumin", "setting": "[2]; 1 h post-incubation", "result": "not detected"}, {"measurement": "binding to the serum proteins including albumin", "setting": "[2]; [9]", "result": "evident"}, {"measurement": "singlet oxygen sensor fluorescence with scavenger sodium azide added", "setting": "[3]", "result": "reduction in fluorescence"}, {"measurement": "primary location of the dye in the kidney (longitudinal slice)", "setting": "[4]; 4 nmole dose", "result": "proximal tubules of the renal cortex"}, {"measurement": "signal in organs other than the liver and kidney", "setting": "[4]; 24 hours after injection", "result": "little to no signal"}, {"measurement": "retention in the liver", "setting": "[4]; nude mice, 2 or 4 nmoles", "result": "no significant retention in the liver"}, {"measurement": "route of clearance", "setting": "[4]; nude mice, 2 or 4 nmoles, 5 minutes to 24 hours", "result": "renal"}]}, {"compound": "CN(C)c1ccc2nc3ccc(=[N+](C)C)cc-3sc2c1", "note": "[methylene blue]", "values": [{"measurement": "binding to the serum proteins including albumin", "setting": "[2]; [9]", "result": "Signal is present"}, {"measurement": "increase of singlet oxygen sensor fluorescence", "setting": "[3]; dye or probe 10 μM, SOGS 1 μM, light exposure 32 J/cm^2 (690 nm)", "result": "Three- to four-fold"}, {"measurement": "singlet oxygen sensor fluorescence with scavenger sodium azide added", "setting": "[3]", "result": "reduction in fluorescence"}]}, {"compound": "700DX-Pan [reference compound]", "values": [{"measurement": "% Healthy", "setting": "A431 cells [5]; [10]", "result": 15.0, "unit": "%"}, {"measurement": "% Necrotic", "setting": "A431 cells [5]; [10]", "result": 70, "unit": "%"}, {"measurement": "Cells/mL", "setting": "A431 cells [5]; [10]", "result": "1.2 × 10^5 Cells/mL"}, {"measurement": "Est % Viability", "setting": "A431 cells [5]; [10]", "result": "30-40%"}, {"measurement": "Low % Vitality", "setting": "A431 cells [5]; [10]", "result": 15, "unit": "%"}, {"measurement": "cytotoxicity by microscopy", "setting": "A431 cells [5]; irradiated, up to 3 hours post-irradiation", "result": "most effective"}, {"measurement": "effect on cells (morphology)", "setting": "A431 cells [6]; irradiated 10 minutes", "result": "severely affected by the irradiating energy and were dying"}, {"measurement": "Cells/mL", "setting": "A431 cells [6]; [11]", "result": "2.8 × 10^5 Cells/mL and 4.2 × 10^5 Cells/mL and 2.3 × 10^5 Cells/mL"}, {"measurement": "VB-48 % necrotic", "setting": "A431 cells [6]; [11]", "result": "67% and 87%"}, {"measurement": "dead irradiated cells", "setting": "A431 cells [7]; 10 min incubation, panitumumab probe about 0.1 μM, EGF probe 0.5 μM, 24 hours post irradiation", "result": 62, "unit": "%"}, {"measurement": "necrotic cells after irradiation", "setting": "A431 cells [7]; irradiation 24 J/cm^2 (figure legend)", "result": 62, "unit": "%"}, {"measurement": "induction of cell death (morphology)", "setting": "A431 cells [8]; [12]", "result": "effectively induced cell death"}, {"measurement": "induction of cell death (morphology)", "setting": "A431 cells [8]; [13]", "result": "No measurable effect"}]}, {"compound": "unlabeled panitumumab: unlabeled antibody that binds EGFR", "values": [{"measurement": "induction of cell death (morphology)", "setting": "A431 cells [8]; [12]", "result": "No measurable effect"}, {"measurement": "induction of cell death (morphology)", "setting": "A431 cells [8]; [13]", "result": "No measurable effect"}]}]}
